These results are taken from patent publication US9617267B2, “Compounds and methods for kinase modulation, and indications therefor” (Plexxikon Inc., priority 2009, dated 2017).

Read-outs that look alike come from different tables or passages of the source.

The target of one series is CYP3A4(BFC) (Homo sapiens (Human), UniProt P08684). Put plainly: CYP enzyme inhibition, fluorescent substrate BFC. Put shortly: (§1)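 Human CYP activity was followed by the fluorescence of the metabolized product of a known substrate, which falls as metabolism is inhibited. Compounds from 100 mM DMSO stocks were serially diluted 1:1 over 10 points in co-factor mix and preincubated 10 min at 37 °C. IC50 was fitted from signal versus concentration.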

The next series has as its target CYP2C19 (Homo sapiens (Human), UniProt P33261). The series can be described thus: CYP enzyme inhibition, fluorescent substrate (CEC). Put shortly:
as §1

The next series has as its target CYP3A4(BQ) (Homo sapiens (Human), UniProt P08684). The series can be described thus: CYP enzyme inhibition, fluorescent substrate BQ. Put shortly:
as §1

Series [1] can be described thus: Relative solubility by turbidity threshold concentration in aqueous buffers (pH 1.5, 4.5, 6.8, 7.4). Type of series: physicochemical. Conditions: for turbidity threshold (L, M, H) 1.4: pH 1.4 [sic] (method: SGF pH 1.5); for turbidity threshold (L, M, H) 4.5: pH 4.5 (SIF); for turbidity threshold (L, M, H) 6.8: pH 6.8 (SIF); for turbidity threshold (L, M, H) 7.4: pH 7.4 (HEPES). The method, boiled down:
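Solubility class (high >250 μM, moderate 31.3–250 μM, low <31.3 μM) comes from the concentration where absorbance reaches a 0.01 threshold, averaged across 490/535/650 nm. Samples were compound dilutions from DMSO stock, 1 μL into 99 μL buffer at pH 1.5, 4.5, 6.8 or 7.4.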

Another series concerns the target CYP2D6 (Homo sapiens (Human), UniProt P10635). The series can be described thus: CYP enzyme inhibition, fluorescent substrate (AMMC). The series is classed as in vitro ADME. Conditions: read-out: Cyp IC50 2D6. The method, boiled down: (§2)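 Ten-point 1:1 compound dilutions in NADPH-regenerating cofactor mix, pre-incubated 10 min at 37 °C before enzyme/substrate addition: CYP1A2 0.5 pmol with 5 μM CEC, 15 min, 409 ex/460 em; CYP2D6 1.5 pmol with 1.5 μM AMMC, 30 min, 409 ex/530 em. IC50 from fluorescent product vs concentration.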

A further series concerns the target CYP1A2 (Homo sapiens (Human), UniProt P05177). Put plainly: CYP enzyme inhibition, fluorescent substrate (CEC). The method, boiled down:
as §2

In a further series the target is CYP2C9 (Homo sapiens (Human), UniProt P11712). Put plainly: CYP enzyme inhibition, fluorescent substrate (MFC). The method, boiled down: as §1
A further series has as its target c-Raf-1 (Homo sapiens, UniProt P04049). The series can be described thus: c-Raf-1 kinase activity biochemical assay (AlphaScreen, biotin-MEK1 phosphorylation). Put shortly: (§3)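 Biotin-MEK1 phosphorylation measured after 45 min kinase reaction at RT with 100 μM ATP final; compounds tested at 8 points from 0.1 mM DMSO stock.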
(In general: In Alpha technology, singlet oxygen from a donor bead excites a nearby acceptor bead.)

Series [2] deals with B-Raf (Homo sapiens (Human), UniProt P15056). Put plainly: B-Raf kinase activity biochemical assay (AlphaScreen, biotin-MEK1 phosphorylation). Conditions: B-Raf. The method, boiled down:
as §3

In series [3] the test system is B-Raf. The description is as above. Conditions: for Biochemical activity ratio B/V600E: ratio of IC50 B-Raf / B-Raf V600E; for Biochemical activity ratio B/C: ratio of IC50 B-Raf / c-Raf-1. Put shortly: as §3
A further series has as its target B-Raf V600E (Homo sapiens (Human), UniProt P15056, V600E). Put plainly: B-Raf V600E kinase activity biochemical assay (AlphaScreen, biotin-MEK1 phosphorylation). Conditions: for IC50: B-Raf V600E; for Biochemical activity ratio V600E/C: ratio of IC50 B-Raf V600E / c-Raf-1. The method, boiled down:
as §3

[4] abbreviates: read-out: Cyp IC50 2C19, CYP2C19, substrate CEC.
[5] abbreviates: read-out: Cyp IC50 3A4(BQ), CYP3A4, substrate BQ.
[6] abbreviates: read-out: Cyp IC50 1A2, CYP1A2, substrate CEC.
[7] abbreviates: read-out: Cyp IC50 2C9, CYP2C9, substrate MFC.
The mark [8] stands for this setting: read-out: Cyp IC50 3A4(BFC), CYP3A4, substrate BFC.

B-Raf (Homo sapiens (Human), UniProt P15056), sequence (P15056 whole entry): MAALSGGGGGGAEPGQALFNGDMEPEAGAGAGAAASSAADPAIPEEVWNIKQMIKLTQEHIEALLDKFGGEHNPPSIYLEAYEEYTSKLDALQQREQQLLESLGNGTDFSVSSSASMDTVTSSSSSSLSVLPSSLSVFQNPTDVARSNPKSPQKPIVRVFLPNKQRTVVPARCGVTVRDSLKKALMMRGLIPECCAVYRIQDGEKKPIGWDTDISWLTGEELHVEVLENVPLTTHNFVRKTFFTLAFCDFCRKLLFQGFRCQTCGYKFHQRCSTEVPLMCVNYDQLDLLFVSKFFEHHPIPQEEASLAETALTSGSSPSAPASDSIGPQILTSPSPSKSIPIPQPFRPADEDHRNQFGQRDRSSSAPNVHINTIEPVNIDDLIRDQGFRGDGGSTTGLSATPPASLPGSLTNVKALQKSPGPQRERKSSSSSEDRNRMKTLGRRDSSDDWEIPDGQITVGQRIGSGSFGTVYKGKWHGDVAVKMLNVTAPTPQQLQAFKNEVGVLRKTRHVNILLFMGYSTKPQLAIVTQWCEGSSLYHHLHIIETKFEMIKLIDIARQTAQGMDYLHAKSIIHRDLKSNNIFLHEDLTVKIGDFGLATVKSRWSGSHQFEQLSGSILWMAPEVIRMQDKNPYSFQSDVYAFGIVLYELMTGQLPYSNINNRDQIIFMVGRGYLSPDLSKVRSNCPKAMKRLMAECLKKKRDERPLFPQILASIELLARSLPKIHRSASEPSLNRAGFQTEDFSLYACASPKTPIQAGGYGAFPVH
CYP2C19, sequence (P33261 whole entry): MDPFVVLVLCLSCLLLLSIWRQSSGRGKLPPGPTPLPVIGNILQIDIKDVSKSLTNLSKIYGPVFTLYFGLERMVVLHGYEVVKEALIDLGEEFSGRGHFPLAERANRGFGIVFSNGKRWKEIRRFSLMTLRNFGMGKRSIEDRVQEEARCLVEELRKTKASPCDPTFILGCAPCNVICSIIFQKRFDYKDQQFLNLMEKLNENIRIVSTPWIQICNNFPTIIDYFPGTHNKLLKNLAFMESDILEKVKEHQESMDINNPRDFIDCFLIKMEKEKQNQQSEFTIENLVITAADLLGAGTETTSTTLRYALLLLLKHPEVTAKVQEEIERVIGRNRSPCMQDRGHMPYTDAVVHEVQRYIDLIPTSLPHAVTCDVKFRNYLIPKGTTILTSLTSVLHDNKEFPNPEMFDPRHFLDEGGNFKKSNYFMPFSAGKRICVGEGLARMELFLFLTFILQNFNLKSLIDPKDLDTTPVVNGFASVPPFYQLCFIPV
B-Raf V600E, sequence (P15056 whole entry V600E): as the sequence (P15056 whole entry) above, with V600E counted along it
CYP1A2, sequence (P05177 whole entry): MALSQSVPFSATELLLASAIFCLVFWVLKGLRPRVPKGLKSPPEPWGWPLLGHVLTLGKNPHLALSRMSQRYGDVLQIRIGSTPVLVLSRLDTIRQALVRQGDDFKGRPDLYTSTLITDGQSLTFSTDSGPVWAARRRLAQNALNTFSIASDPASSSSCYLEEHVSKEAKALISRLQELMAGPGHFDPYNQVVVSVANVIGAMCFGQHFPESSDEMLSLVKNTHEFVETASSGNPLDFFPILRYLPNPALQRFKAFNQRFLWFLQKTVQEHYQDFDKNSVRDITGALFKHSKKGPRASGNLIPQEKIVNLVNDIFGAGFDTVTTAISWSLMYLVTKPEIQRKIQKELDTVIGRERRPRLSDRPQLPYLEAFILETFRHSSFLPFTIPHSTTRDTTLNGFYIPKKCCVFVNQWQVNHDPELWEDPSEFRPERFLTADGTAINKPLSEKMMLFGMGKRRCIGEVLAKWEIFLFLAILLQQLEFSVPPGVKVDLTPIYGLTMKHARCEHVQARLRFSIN
CYP2C9, sequence (P11712 whole entry): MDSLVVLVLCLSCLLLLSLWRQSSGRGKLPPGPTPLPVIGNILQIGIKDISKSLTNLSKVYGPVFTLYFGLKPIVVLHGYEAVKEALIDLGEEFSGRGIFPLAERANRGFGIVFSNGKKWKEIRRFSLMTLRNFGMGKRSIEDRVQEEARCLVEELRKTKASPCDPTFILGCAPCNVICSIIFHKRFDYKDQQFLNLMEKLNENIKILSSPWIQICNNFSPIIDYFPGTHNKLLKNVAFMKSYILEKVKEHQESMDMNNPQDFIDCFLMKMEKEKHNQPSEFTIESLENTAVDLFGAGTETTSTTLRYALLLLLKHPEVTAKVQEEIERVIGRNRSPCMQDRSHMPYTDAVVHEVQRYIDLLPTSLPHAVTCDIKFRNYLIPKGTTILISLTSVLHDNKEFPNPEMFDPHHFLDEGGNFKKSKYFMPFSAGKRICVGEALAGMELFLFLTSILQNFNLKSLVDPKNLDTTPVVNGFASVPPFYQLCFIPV
CYP2D6, sequence (P10635 whole entry): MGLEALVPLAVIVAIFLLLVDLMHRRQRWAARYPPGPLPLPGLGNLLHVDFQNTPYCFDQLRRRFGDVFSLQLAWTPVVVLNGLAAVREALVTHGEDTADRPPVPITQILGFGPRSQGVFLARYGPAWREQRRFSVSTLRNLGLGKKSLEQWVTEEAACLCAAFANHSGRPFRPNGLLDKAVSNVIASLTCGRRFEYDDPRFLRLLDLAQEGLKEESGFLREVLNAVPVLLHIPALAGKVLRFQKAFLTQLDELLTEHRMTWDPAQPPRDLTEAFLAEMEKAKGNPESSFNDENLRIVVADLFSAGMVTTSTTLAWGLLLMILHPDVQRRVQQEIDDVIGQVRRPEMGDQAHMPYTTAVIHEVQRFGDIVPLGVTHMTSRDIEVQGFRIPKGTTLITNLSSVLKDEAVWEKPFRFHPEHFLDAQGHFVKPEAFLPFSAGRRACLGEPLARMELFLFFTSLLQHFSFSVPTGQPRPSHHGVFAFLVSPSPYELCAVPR
c-Raf-1, sequence (P04049 whole entry, looked up): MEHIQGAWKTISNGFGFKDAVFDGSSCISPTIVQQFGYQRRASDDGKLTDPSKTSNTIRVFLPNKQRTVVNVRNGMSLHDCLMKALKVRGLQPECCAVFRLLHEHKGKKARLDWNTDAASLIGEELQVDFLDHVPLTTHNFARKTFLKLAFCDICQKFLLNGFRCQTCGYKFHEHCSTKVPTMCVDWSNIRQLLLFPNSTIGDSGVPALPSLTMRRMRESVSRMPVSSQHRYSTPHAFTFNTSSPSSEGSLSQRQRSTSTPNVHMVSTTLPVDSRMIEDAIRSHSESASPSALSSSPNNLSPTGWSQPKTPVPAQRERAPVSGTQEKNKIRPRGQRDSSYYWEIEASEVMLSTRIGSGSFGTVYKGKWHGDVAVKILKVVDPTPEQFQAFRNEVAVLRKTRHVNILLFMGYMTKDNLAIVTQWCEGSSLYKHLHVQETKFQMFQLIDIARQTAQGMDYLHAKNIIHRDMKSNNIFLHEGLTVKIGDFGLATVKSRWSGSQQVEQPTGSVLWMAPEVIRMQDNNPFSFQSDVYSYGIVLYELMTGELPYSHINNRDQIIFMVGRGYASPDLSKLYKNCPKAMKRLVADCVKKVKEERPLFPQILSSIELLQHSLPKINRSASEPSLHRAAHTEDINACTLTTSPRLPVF
CYP3A4(BQ), sequence (P08684 whole entry): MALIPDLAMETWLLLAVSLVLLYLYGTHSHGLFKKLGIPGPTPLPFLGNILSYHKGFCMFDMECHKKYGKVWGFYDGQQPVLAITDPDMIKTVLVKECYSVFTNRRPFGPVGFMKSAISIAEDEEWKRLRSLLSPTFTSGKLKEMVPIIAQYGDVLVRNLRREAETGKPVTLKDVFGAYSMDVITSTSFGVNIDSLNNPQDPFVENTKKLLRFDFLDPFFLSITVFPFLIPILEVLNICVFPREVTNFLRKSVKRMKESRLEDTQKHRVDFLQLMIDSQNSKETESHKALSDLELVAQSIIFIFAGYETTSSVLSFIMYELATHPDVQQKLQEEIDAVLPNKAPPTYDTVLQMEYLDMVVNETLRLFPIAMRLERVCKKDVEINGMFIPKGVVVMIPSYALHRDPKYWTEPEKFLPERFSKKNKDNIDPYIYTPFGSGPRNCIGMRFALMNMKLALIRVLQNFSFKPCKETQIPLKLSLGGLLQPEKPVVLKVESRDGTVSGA
CYP3A4(BFC), sequence (P08684 whole entry): as above

As usually defined, the IC50 is the concentration that gives 50% inhibition. Regarding `O=C(c1c(F)ccc(NS(=O)(=O)c2ccc(C(F)(F)F)cc2)c1F)c1c[nH]c2ncnc(NCC3CC3)c12` [P-1052, N-{3-[4-(Cyclopropylmethyl-amino)-7H-pyrrolo[2,3-d]pyrimidine-5-carbonyl]-2,4-difluoro-phenyl}-4-trifluoromethyl-benzenesulfonamide], the 50% inhibitory concentration (IC50) on CYP3A4(BFC) is 5 to 10 µM; on CYP2C19 (setting [4]), less than 5 µM; at CYP3A4(BQ) (setting [5]), more than 10 µM; on CYP2D6 it was more than 10 µM; on CYP1A2 (setting [6]), more than 10 µM; on CYP2C9 (setting [7]), less than 5 µM. Moreover, the IC50 against c-Raf-1, at B-Raf [2] and on B-Raf V600E was less than 0.1 µM in each case. For the same compound, the “turbidity threshold (L, M, H) 1.4” value in series [1] is on record as “L (low solubility if the threshold concentration is <31.3 μM)”. Also, in series [1], the “turbidity threshold (L, M, H) 4.5” value is “L (low solubility if the threshold concentration is <31.3 μM)”. The “turbidity threshold (L, M, H) 6.8” value in series [1] is given as “L (low solubility if the threshold concentration is <31.3 μM)”. Further, in series [1], the “turbidity threshold (L, M, H) 7.4” value is recorded as “L (low solubility if the threshold concentration is <31.3 μM)”. Moreover, the “Biochemical activity ratio B/V600E” value in the series with B-Raf [3] is given as 0.1-10. Further, the “Biochemical activity ratio B/C” value in the series with B-Raf [3] was more than 10. For the same compound, the “Biochemical activity ratio V600E/C” value at B-Raf V600E was more than 10.
Turning to `COCCNc1ncnc2[nH]cc(C(=O)c3c(F)ccc(NS(=O)(=O)c4ccc(C(F)(F)F)cc4)c3F)c12` [P-1058, N-{2,4-Difluoro-3-[4-(2-methoxy-ethylamino)-7H-pyrrolo[2,3-d]pyrimidine-5-carbonyl]-phenyl}-4-trifluoromethyl-benzenesulfonamide], the IC50 at CYP3A4(BFC) is 5 to 10 µM; at CYP2C19 (setting [4]), more than 10 µM; at CYP3A4(BQ) (setting [5]), more than 10 µM; on CYP2D6, more than 10 µM; against CYP1A2 (human, 15 min), more than 10 µM; on CYP2C9 (setting [7]), more than 10 µM. Further, the figures for the IC50 on c-Raf-1, at B-Raf [2] and against B-Raf V600E were less than 0.1 µM, less than 0.1 µM and more than 0.1 µM, respectively. For the same compound, in series [1], the “turbidity threshold (L, M, H) 1.4” value is given as “M (moderate solubility if the threshold concentration is 31.3 μM to 250 μM)”. Also, the “turbidity threshold (L, M, H) 4.5” value in series [1] was “L (low solubility if the threshold concentration is <31.3 μM)”. Moreover, the “turbidity threshold (L, M, H) 6.8” value in series [1] is reported as “L (low solubility if the threshold concentration is <31.3 μM)”. Further, the “turbidity threshold (L, M, H) 7.4” value in series [1] is on record as “L (low solubility if the threshold concentration is <31.3 μM)”. In addition, the “Biochemical activity ratio B/V600E” value in the series on B-Raf [3] is 0.1-10. For the same compound, the “Biochemical activity ratio B/C” value in the series with B-Raf [3] was 0.1-10. In addition, the “Biochemical activity ratio V600E/C” value on B-Raf V600E is on record as more than 10.
With `CCc1ccc(S(=O)(=O)Nc2ccc(F)c(C(=O)c3c[nH]c4ncnc(OC)c34)c2F)cc1` [P-1008, N-[2,4-Difluoro-3-(4-methoxy-7H-pyrrolo[2,3-d]pyrimidine-5-carbonyl)-phenyl]-4-ethyl-benzenesulfonamide], the IC50 at CYP3A4(BFC) (setting [8]) is more than 10 µM; on CYP2C19 (setting [4]), more than 10 µM; at CYP3A4(BQ) (setting [5]), more than 10 µM; at CYP2D6, more than 10 µM; at CYP1A2 (human, 15 min), more than 10 µM; at CYP2C9 it was 5 to 10 µM. Also, the IC50 against c-Raf-1, against B-Raf [2] and against B-Raf V600E was more than 0.1 µM throughout. In series [1], the “turbidity threshold (L, M, H) 1.4” value is “M (moderate solubility if the threshold concentration is 31.3 μM to 250 μM)”. In series [1], the “turbidity threshold (L, M, H) 4.5” value was “M (moderate solubility if the threshold concentration is 31.3 μM to 250 μM)”. Moreover, the “turbidity threshold (L, M, H) 6.8” value in [1] is given as “L (low solubility if the threshold concentration is <31.3 μM)”. Also, the “turbidity threshold (L, M, H) 7.4” value in series [1] was “M (moderate solubility if the threshold concentration is 31.3 μM to 250 μM)”. The “Biochemical activity ratio B/V600E” value in the series on B-Raf [3] was 0.1-10. Besides, the “Biochemical activity ratio B/C” value in the series with B-Raf [3] is 0.1-10. Also, the “Biochemical activity ratio V600E/C” value on B-Raf V600E is listed as 0.1-10.
Turning to `COc1ncnc2[nH]cc(C(=O)c3c(F)ccc(NS(=O)(=O)CC(C)C)c3F)c12` [P-1004, 2-Methyl-propane-1-sulfonic acid [2,4-difluoro-3-(4-methoxy-7H-pyrrolo[2,3-d]pyrimidine-5-carbonyl)-phenyl]-amide], the IC50 is more than 10 µM on CYP3A4(BFC) (setting [8]); more than 10 µM on CYP2C19 (setting [4]); more than 10 µM on CYP3A4(BQ) (setting [5]); more than 10 µM at CYP2D6; more than 10 µM against CYP1A2 (human, 15 min); 5 to 10 µM against CYP2C9. The IC50 was less than 0.1 µM at c-Raf-1, more than 0.1 µM against B-Raf [2] and less than 0.1 µM on B-Raf V600E. For the same compound, the “turbidity threshold (L, M, H) 1.4” value in series [1] is on record as “H (high solubility if the threshold concentration is >250 μm)”. In addition, in [1], the “turbidity threshold (L, M, H) 4.5” value is given as “H (high solubility if the threshold concentration is >250 μm)”. Besides, the “turbidity threshold (L, M, H) 6.8” value in series [1] is given as “H (high solubility if the threshold concentration is >250 μm)”. The “turbidity threshold (L, M, H) 7.4” value in series [1] is on record as “H (high solubility if the threshold concentration is >250 μm)”. Also, in the series with B-Raf [3], the “Biochemical activity ratio B/V600E” value is more than 10. Besides, the “Biochemical activity ratio B/C” value with B-Raf [3] was more than 10. For the same compound, at B-Raf V600E, the “Biochemical activity ratio V600E/C” value was 0.1-10.
For `O=C(c1c(F)ccc(NS(=O)(=O)c2ccc(C(F)(F)F)cc2)c1F)c1c[nH]c2ncnc(NC3CCOCC3)c12` [P-1013, N-{2,4-Difluoro-3-[4-(tetrahydro-pyran-4-ylamino)-7H-pyrrolo[2,3-d]pyrimidine-5-carbonyl]-phenyl}-4-trifluoromethyl-benzenesulfonamide], the IC50 at CYP3A4(BFC) (setting [8]), on CYP2C19 (setting [4]), at CYP3A4(BQ) (setting [5]), at CYP2D6, at CYP1A2 (setting [6]) and at CYP2C9 (setting [7]) was more than 10 µM throughout. Also, the IC50 against c-Raf-1 is less than 0.1 µM; on B-Raf [2] it was less than 0.1 µM; against B-Raf V600E it was more than 0.1 µM. For the same compound, the “turbidity threshold (L, M, H) 1.4” value in [1] is given as “L (low solubility if the threshold concentration is <31.3 μM)”. In addition, the “turbidity threshold (L, M, H) 4.5” value in series [1] is listed as “L (low solubility if the threshold concentration is <31.3 μM)”. For the same compound, the “turbidity threshold (L, M, H) 6.8” value in series [1] is listed as “L (low solubility if the threshold concentration is <31.3 μM)”. Moreover, the “turbidity threshold (L, M, H) 7.4” value in series [1] is “M (moderate solubility if the threshold concentration is 31.3 μM to 250 μM)”. Further, the “Biochemical activity ratio B/V600E” value with B-Raf [3] is on record as 0.1-10. Besides, in the series on B-Raf [3], the “Biochemical activity ratio B/C” value is listed as more than 10. The “Biochemical activity ratio V600E/C” value at B-Raf V600E is more than 10.
Turning to `CCCS(=O)(=O)Nc1ccc(F)c(C(=O)c2c[nH]c3ncc(OC)c(Cl)c23)c1F` [P-2002, Propane-1-sulfonic acid [3-(4-chloro-5-methoxy-1H-pyrrolo[2,3-b]pyridine-3-carbonyl)-2,4-difluoro-phenyl]-amide], the IC50 is 5 to 10 µM against CYP3A4(BFC); less than 5 µM against CYP2C19; 5 to 10 µM against CYP3A4(BQ); more than 10 µM on CYP2D6; more than 10 µM against CYP1A2; less than 5 µM on CYP2C9. In addition, the IC50 on c-Raf-1, against B-Raf [2] and against B-Raf V600E was less than 0.1 µM each time. Moreover, the “turbidity threshold (L, M, H) 1.4” value in series [1] was “M (moderate solubility if the threshold concentration is 31.3 μM to 250 μM)”. The “turbidity threshold (L, M, H) 4.5” value in series [1] is “M (moderate solubility if the threshold concentration is 31.3 μM to 250 μM)”. In [1], the “turbidity threshold (L, M, H) 6.8” value is listed as “M (moderate solubility if the threshold concentration is 31.3 μM to 250 μM)”. In addition, the “turbidity threshold (L, M, H) 7.4” value in series [1] was “M (moderate solubility if the threshold concentration is 31.3 μM to 250 μM)”. The “Biochemical activity ratio B/V600E” value with B-Raf [3] is recorded as 0.1-10. Moreover, the “Biochemical activity ratio B/C” value in the series with B-Raf [3] is reported as 0.1-10. Besides, the “Biochemical activity ratio V600E/C” value at B-Raf V600E is on record as 0.1-10.
